Laboratory results as given in patent publication US20170239330A1, “FORMULATIONS FOR HISTATIN THERAPEUTICS” (RAPID PATHOGEN SCREENING, INC., priority 2014, published 2017).

Experiments:
[1] = Stability of ocular histatin formulation determined by mass spectroscopy; format: physicochemical; details: 100 μg/mL in gel tears lubricating eye drop with 0.25% PEG in aqueous buffered borate salt solution
Method: In some embodiments, the ocular histatin formulation is stable both at room temperature (25° C.) and at 45° C. for at least 90 days.

[2] = test system: cultured ocular epithelial cells; details: in vitro; cited from earlier work

Substance	Time formulation found stable, by mass spectroscopy ([1]; 25° C.)	Time formulation found stable, by mass spectroscopy ([1]; 45° C.)	Cytotoxicity to cultured ocular epithelial cells [2]
cyclo(DNLPETGGDSHEKRHHGYRRKFHEKHHSHREFPFYGDYGSNYLY) [cyclized histatin 1]	at least 505 days	at least 90 days	
Benzalkonium chloride			significant cytotoxicity
